Experimental data taken from patent publication US6355799B1, “Substituted benzene compounds, process for their preparation, and herbicidal and defoliant compositions containing them” (ISK Americas Incorporated, priority 1997, dated 2002).

Experiments:
Format in all cases: in vivo
[1] = system: redroot pigweed (Amaranthus retroflexus, AMARE); test: Pre-emerge test, greenhouse herbicide activity screening; conditions: rating scale 0-100, 14 days after application
Method in brief: (§1)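 Compounds in acetone were track-sprayed at 15-1000 g ai/ha (187 l/ha) on sandy loam pots: pre-emerge one day after seeding, post-emerge at 2-3 leaf stage with 0.25% v/v non-ionic surfactant. Phytotoxicity was rated 14 days later on a 0 (no damage) to 100 (complete death) scale.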

[2] = system: barnyardgrass (Echinochloa crus-galli, ECHCG); test: as above; conditions: rating scale 0-100, 14 days after application
Method in brief: (§2)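 Sandy loam pots; pre-emerge: sown 1 d pre-spray, surface-watered after, then bottom-watered. Post-emerge: sown 8–21 d before, 2–3 leaf stage, + 0.25% v/v NIS, bottom-watered. Acetone, 187 l/ha track spray, 15–1000 g ai/ha. 0–100 injury score, day 14.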

[3] = system: common ragweed (Ambrosia artemisizfolia L., AMBEL); test: as above; conditions: rating scale 0-100, 14 days after application
Method in brief: as §2

[4] = system: green foxtail (Setaria viridis, SETVI); test: as above; conditions: rating scale 0-100, 14 days after application
Method in brief: as §2

[5] = system: ivyleaf morningglory (Ipomoea hederacea, IPOHE); test: as above; conditions: rating scale 0-100, 14 days after application
Method in brief: as §2

[6] = system: johnsongrass (Sorghum halepense, SORHA); test: as above; conditions: rating scale 0-100, 14 days after application
Method in brief: as §2

[7] = system: lambsquarters (Chenopodium album, CHEAL); test: as above; conditions: rating scale 0-100, 14 days after application
Method in brief: as §2

[8] = system: large crabgrass (Digitaria sanguinalis, DIGSA); test: as above; conditions: rating scale 0-100, 14 days after application
Method in brief: as §2

[9] = system: sicklepod (Cassia obtusifolia, CASOB); test: as above; conditions: rating scale 0-100, 14 days after application
Method in brief: as §2

[10] = system: velvetleaf (Abutilon theophrasti, ABUTH); test: as above; conditions: rating scale 0-100, 14 days after application
Method in brief: as §2

[11] = system: field corn (Zea mays L., var. Dekalb 535, CORN); test: Pre-emerge test, crop safety; conditions: rating scale 0-100, 14 days after application
Method in brief: (§3)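 Compounds in acetone were track-sprayed at 187 l/ha, 15–1000 g ai/ha, onto sandy loam pots. Pre-emerge seeds were sown one day before spraying, with surface watering afterwards. Post-emerge plants were at the 2–3 leaf stage and sprayed with 0.25% v/v non-ionic surfactant. Injury was rated 0–100 at 14 days.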

[12] = system: upland rice (Oryza sp., var. Tebonnet, RICE); test: Pre-emerge test, crop safety; conditions: rating scale 0-100, 14 days after application
Method in brief: as §3

[13] = system: barnyardgrass (Echinochloa crus-galli, ECHCG); test: Post-emerge test, greenhouse herbicide activity screening; conditions: rating scale 0-100 (0 no damage, 100 complete death), 14 days after application
Method in brief: as §1

[14] = system: common ragweed (Ambrosia artemisizfolia L., AMBEL); test: as above; conditions: rating scale 0-100 (0 no damage, 100 complete death), 14 days after application
Method in brief: as §1

[15] = system: green foxtail (Setaria viridis, SETVI); test: as above; conditions: rating scale 0-100 (0 no damage, 100 complete death), 14 days after application
Method in brief: as §1

[16] = system: ivyleaf morningglory (Ipomoea hederacea, IPOHE); test: as above; conditions: rating scale 0-100 (0 no damage, 100 complete death), 14 days after application
Method in brief: as §1

[17] = system: johnsongrass (Sorghum halepense, SORHA); test: as above; conditions: rating scale 0-100 (0 no damage, 100 complete death), 14 days after application
Method in brief: as §1

[18] = system: lambsquarters (Chenopodium album, CHEAL); test: as above; conditions: rating scale 0-100 (0 no damage, 100 complete death), 14 days after application
Method in brief: as §1

[19] = system: large crabgrass (Digitaria sanguinalis, DIGSA); test: as above; conditions: rating scale 0-100 (0 no damage, 100 complete death), 14 days after application
Method in brief: as §1

[20] = system: redroot pigweed (Amaranthus retroflexus, AMARE); test: as above; conditions: rating scale 0-100 (0 no damage, 100 complete death), 14 days after application
Method in brief: as §1

[21] = system: sicklepod (Cassia obtusifolia, CASOB); test: as above; conditions: rating scale 0-100 (0 no damage, 100 complete death), 14 days after application
Method in brief: as §1

[22] = system: velvetleaf (Abutilon theophrasti, ABUTH); test: as above; conditions: rating scale 0-100 (0 no damage, 100 complete death), 14 days after application
Method in brief: as §1

[23] = system: field corn (Zea mays L., var. Dekalb 535, CORN); test: Post-emerge test, crop safety; conditions: rating scale 0-100 (0 no damage, 100 complete death), 14 days after application
Method in brief: as §2

[24] = system: upland rice (Oryza sp., var. Tebonnet, RICE); test: Post-emerge test, crop safety; conditions: rating scale 0-100 (0 no damage, 100 complete death), 14 days after application
Method in brief: as §2

CCCOC(=O)C(Cl)Cc1c(OC)c(Cl)cc(F)c1-n1c(=O)cc(C(F)(F)F)n(C)c1=O (single isomer, unassigned) [14-7]
Pre-emerge herbicidal activity, phytotoxicity rating AMARE ([1]; 63 g ai/ha): 90
Pre-emerge herbicidal activity, phytotoxicity rating AMARE ([1]; 250 g ai/ha): 100
Pre-emerge herbicidal activity, phytotoxicity rating ECHCG ([2]; 63 g ai/ha): 0
Pre-emerge herbicidal activity, phytotoxicity rating ECHCG ([2]; 250 g ai/ha): 75
Pre-emerge herbicidal activity, phytotoxicity rating AMBEL ([3]; 63 g ai/ha): 0
Pre-emerge herbicidal activity, phytotoxicity rating AMBEL ([3]; 250 g ai/ha): 50
Pre-emerge herbicidal activity, phytotoxicity rating SETVI ([4]; 63 g ai/ha): 10
Pre-emerge herbicidal activity, phytotoxicity rating SETVI ([4]; 250 g ai/ha): 90
Pre-emerge herbicidal activity, phytotoxicity rating IPOHE ([5]; 63 g ai/ha): 0
Pre-emerge herbicidal activity, phytotoxicity rating IPOHE ([5]; 250 g ai/ha): 0
Pre-emerge herbicidal activity, phytotoxicity rating SORHA ([6]; 63 g ai/ha): 0
Pre-emerge herbicidal activity, phytotoxicity rating SORHA ([6]; 250 g ai/ha): 70
Pre-emerge herbicidal activity, phytotoxicity rating CHEAL ([7]; 63 g ai/ha): 40
Pre-emerge herbicidal activity, phytotoxicity rating CHEAL ([7]; 250 g ai/ha): 85
Pre-emerge herbicidal activity, phytotoxicity rating DIGSA ([8]; 63 g ai/ha): 90
Pre-emerge herbicidal activity, phytotoxicity rating DIGSA ([8]; 250 g ai/ha): 100
Pre-emerge herbicidal activity, phytotoxicity rating CASOB ([9]; 63 g ai/ha): 20
Pre-emerge herbicidal activity, phytotoxicity rating CASOB ([9]; 250 g ai/ha): 0
Pre-emerge herbicidal activity, phytotoxicity rating ABUTH ([10]; 63 g ai/ha): 100
Pre-emerge herbicidal activity, phytotoxicity rating ABUTH ([10]; 250 g ai/ha): 100
Pre-emerge phytotoxicity rating, crop damage CORN ([11]; 63 g ai/ha): 10
Pre-emerge phytotoxicity rating, crop damage CORN ([11]; 250 g ai/ha): 90
Pre-emerge phytotoxicity rating, crop damage RICE ([12]; 63 g ai/ha): 0
Pre-emerge phytotoxicity rating, crop damage RICE ([12]; 250 g ai/ha): 40
Post-emerge Herbicidal Activity, phytotoxicity rating ECHCG ([13]; Rate 63 g ai/ha): 100
Post-emerge Herbicidal Activity, phytotoxicity rating ECHCG ([13]; Rate 250 g ai/ha): 100
Post-emerge Herbicidal Activity, phytotoxicity rating AMBEL ([14]; Rate 63 g ai/ha): 50
Post-emerge Herbicidal Activity, phytotoxicity rating AMBEL ([14]; Rate 250 g ai/ha): 90
Post-emerge Herbicidal Activity, phytotoxicity rating SETVI ([15]; Rate 63 g ai/ha): 60
Post-emerge Herbicidal Activity, phytotoxicity rating SETVI ([15]; Rate 250 g ai/ha): 85
Post-emerge Herbicidal Activity, phytotoxicity rating IPOHE ([16]; Rate 63 g ai/ha): 20
Post-emerge Herbicidal Activity, phytotoxicity rating IPOHE ([16]; Rate 250 g ai/ha): 60
Post-emerge Herbicidal Activity, phytotoxicity rating SORHA ([17]; Rate 63 g ai/ha): 70
Post-emerge Herbicidal Activity, phytotoxicity rating SORHA ([17]; Rate 250 g ai/ha): 90
Post-emerge Herbicidal Activity, phytotoxicity rating CHEAL ([18]; Rate 63 g ai/ha): 90
Post-emerge Herbicidal Activity, phytotoxicity rating CHEAL ([18]; Rate 250 g ai/ha): 99
Post-emerge Herbicidal Activity, phytotoxicity rating DIGSA ([19]; Rate 63 g ai/ha): 80
Post-emerge Herbicidal Activity, phytotoxicity rating DIGSA ([19]; Rate 250 g ai/ha): 100
Post-emerge Herbicidal Activity, phytotoxicity rating AMARE ([20]; Rate 63 g ai/ha): 95
Post-emerge Herbicidal Activity, phytotoxicity rating AMARE ([20]; Rate 250 g ai/ha): 100
Post-emerge Herbicidal Activity, phytotoxicity rating CASOB ([21]; Rate 63 g ai/ha): 0
Post-emerge Herbicidal Activity, phytotoxicity rating CASOB ([21]; Rate 250 g ai/ha): 20
Post-emerge Herbicidal Activity, phytotoxicity rating ABUTH ([22]; Rate 63 g ai/ha): 50
Post-emerge Herbicidal Activity, phytotoxicity rating ABUTH ([22]; Rate 250 g ai/ha): 100
Post-emerge phytotoxicity rating CORN (crop damage) ([23]; Rate 63 g ai/ha): 95
Post-emerge phytotoxicity rating CORN (crop damage) ([23]; Rate 250 g ai/ha): 100
Post-emerge phytotoxicity rating RICE (crop damage) ([24]; Rate 63 g ai/ha): 10
Post-emerge phytotoxicity rating RICE (crop damage) ([24]; Rate 250 g ai/ha): 25

COc1c(Cl)cc(F)c(-n2c(=O)cc(C(F)(F)F)n(C)c2=O)c1CC(Cl)C(=O)OCC(F)(F)F (stereo not drawn) [14-21]
Pre-emerge herbicidal activity, phytotoxicity rating AMARE ([1]; 63 g ai/ha): 60
Pre-emerge herbicidal activity, phytotoxicity rating AMARE ([1]; 250 g ai/ha): 95
Pre-emerge herbicidal activity, phytotoxicity rating ECHCG ([2]; 63 g ai/ha): 0
Pre-emerge herbicidal activity, phytotoxicity rating ECHCG ([2]; 250 g ai/ha): 20
Pre-emerge herbicidal activity, phytotoxicity rating AMBEL ([3]; 63 g ai/ha): 0
Pre-emerge herbicidal activity, phytotoxicity rating AMBEL ([3]; 250 g ai/ha): 40
Pre-emerge herbicidal activity, phytotoxicity rating SETVI ([4]; 63 g ai/ha): 0
Pre-emerge herbicidal activity, phytotoxicity rating SETVI ([4]; 250 g ai/ha): 0
Pre-emerge herbicidal activity, phytotoxicity rating IPOHE ([5]; 63 g ai/ha): 0
Pre-emerge herbicidal activity, phytotoxicity rating IPOHE ([5]; 250 g ai/ha): 0
Pre-emerge herbicidal activity, phytotoxicity rating SORHA ([6]; 63 g ai/ha): 0
Pre-emerge herbicidal activity, phytotoxicity rating SORHA ([6]; 250 g ai/ha): 35
Pre-emerge herbicidal activity, phytotoxicity rating CHEAL ([7]; 63 g ai/ha): 20
Pre-emerge herbicidal activity, phytotoxicity rating CHEAL ([7]; 250 g ai/ha): 75
Pre-emerge herbicidal activity, phytotoxicity rating DIGSA ([8]; 63 g ai/ha): 0
Pre-emerge herbicidal activity, phytotoxicity rating DIGSA ([8]; 250 g ai/ha): 70
Pre-emerge herbicidal activity, phytotoxicity rating CASOB ([9]; 63 g ai/ha): 0
Pre-emerge herbicidal activity, phytotoxicity rating CASOB ([9]; 250 g ai/ha): 10
Pre-emerge herbicidal activity, phytotoxicity rating ABUTH ([10]; 63 g ai/ha): 40
Pre-emerge herbicidal activity, phytotoxicity rating ABUTH ([10]; 250 g ai/ha): 100
Pre-emerge phytotoxicity rating, crop damage CORN ([11]; 63 g ai/ha): 0
Pre-emerge phytotoxicity rating, crop damage CORN ([11]; 250 g ai/ha): 70
Pre-emerge phytotoxicity rating, crop damage RICE ([12]; 63 g ai/ha): 0
Pre-emerge phytotoxicity rating, crop damage RICE ([12]; 250 g ai/ha): 20
Post-emerge Herbicidal Activity, phytotoxicity rating ECHCG ([13]; Rate 63 g ai/ha): 99
Post-emerge Herbicidal Activity, phytotoxicity rating ECHCG ([13]; Rate 250 g ai/ha): 100
Post-emerge Herbicidal Activity, phytotoxicity rating AMBEL ([14]; Rate 63 g ai/ha): 50
Post-emerge Herbicidal Activity, phytotoxicity rating AMBEL ([14]; Rate 250 g ai/ha): 95
Post-emerge Herbicidal Activity, phytotoxicity rating SETVI ([15]; Rate 63 g ai/ha): 10
Post-emerge Herbicidal Activity, phytotoxicity rating SETVI ([15]; Rate 250 g ai/ha): 40
Post-emerge Herbicidal Activity, phytotoxicity rating IPOHE ([16]; Rate 63 g ai/ha): 40
Post-emerge Herbicidal Activity, phytotoxicity rating IPOHE ([16]; Rate 250 g ai/ha): 50
Post-emerge Herbicidal Activity, phytotoxicity rating SORHA ([17]; Rate 63 g ai/ha): 10
Post-emerge Herbicidal Activity, phytotoxicity rating SORHA ([17]; Rate 250 g ai/ha): 70
Post-emerge Herbicidal Activity, phytotoxicity rating CHEAL ([18]; Rate 63 g ai/ha): 70
Post-emerge Herbicidal Activity, phytotoxicity rating CHEAL ([18]; Rate 250 g ai/ha): 95
Post-emerge Herbicidal Activity, phytotoxicity rating DIGSA ([19]; Rate 63 g ai/ha): 70
Post-emerge Herbicidal Activity, phytotoxicity rating DIGSA ([19]; Rate 250 g ai/ha): 98
Post-emerge Herbicidal Activity, phytotoxicity rating AMARE ([20]; Rate 63 g ai/ha): 90
Post-emerge Herbicidal Activity, phytotoxicity rating AMARE ([20]; Rate 250 g ai/ha): 100
Post-emerge Herbicidal Activity, phytotoxicity rating CASOB ([21]; Rate 63 g ai/ha): 30
Post-emerge Herbicidal Activity, phytotoxicity rating CASOB ([21]; Rate 250 g ai/ha): 60
Post-emerge Herbicidal Activity, phytotoxicity rating ABUTH ([22]; Rate 63 g ai/ha): 100
Post-emerge Herbicidal Activity, phytotoxicity rating ABUTH ([22]; Rate 250 g ai/ha): 95
Post-emerge phytotoxicity rating CORN (crop damage) ([23]; Rate 63 g ai/ha): 50
Post-emerge phytotoxicity rating CORN (crop damage) ([23]; Rate 250 g ai/ha): 100
Post-emerge phytotoxicity rating RICE (crop damage) ([24]; Rate 63 g ai/ha): 10
Post-emerge phytotoxicity rating RICE (crop damage) ([24]; Rate 250 g ai/ha): 45
